Experimental data reported in PubChem BioAssay (NCI).
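Tested at 5 concentrations; 48 h exposure; 96-well plates; endpoints linearly interpolated, else capped at highest concentration. The concentration for full growth arrest is given as TGI.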

How the values were obtained:
Assay in all cases: DTP human tumour cell line panel, 48 h
HL-60(TB) leukemia = test system: HL-60(TB) leukemia
A549 NSCLC = test system: A549 NSCLC
MDA-MB-231 breast = test system: MDA-MB-231 breast
HOP-18 NSCLC = test system: HOP-18 NSCLC
DLD-1 colon = test system: DLD-1 colon
DMS 273 small cell lung = test system: DMS 273 small cell lung
DMS 114 small cell lung = test system: DMS 114 small cell lung
UO-31 renal = test system: UO-31 renal
KM20L2 colon = test system: KM20L2 colon
LXFL 529 NSCLC = test system: LXFL 529 NSCLC
SNB-78 CNS = test system: SNB-78 CNS
XF 498 CNS = test system: XF 498 CNS
M19-MEL melanoma = test system: M19-MEL melanoma

Compound | TGI (HL-60(TB) leukemia) | TGI (A549 NSCLC) | TGI (MDA-MB-231 breast) | TGI (HOP-18 NSCLC) | TGI (DLD-1 colon) | TGI (DMS 273 small cell lung) | TGI (DMS 114 small cell lung) | TGI (UO-31 renal) | TGI (KM20L2 colon) | TGI (LXFL 529 NSCLC) | TGI (SNB-78 CNS) | TGI (XF 498 CNS) | TGI (M19-MEL melanoma)
COc1cc(/C=C2\CCC(C)c3c2nc(N)c(C#N)c3-c2cc(OC)c(OC)c(OC)c2)cc(OC)c1OC (centres undefined) | > 100 µM | > 100 µM | > 100 µM |  |  |  |  |  |  |  |  |  | 
Cc1cccc(NC(=O)CSc2nnc(Cc3ccccc3)o2)c1 | > 100 µM | > 100 µM |  | > 100 µM | > 100 µM | > 100 µM | > 100 µM | > 100 µM | > 100 µM | > 100 µM | > 100 µM |  | 
CN(C)Cc1cc(C(=O)/C=C/c2c(Cl)cccc2Cl)cc(CN(C)C)c1O | 11.7 µM | 29.5 µM | 15.1 µM |  |  |  |  | 8.85 µM |  |  |  |  | 
CC(=O)NNc1nc(C)c(C(/C=C/c2ccccc2O)=N/NC(=O)c2ccncc2)s1 | > 100 µM | > 100 µM | > 100 µM |  |  |  |  | > 100 µM |  |  |  |  | 
C#CCOC(=O)C(N)CS (centres undefined) | > 100 µM | > 100 µM | > 100 µM |  |  |  |  | > 100 µM |  |  |  |  | 
NC(=Nc1ccc(Cl)c(Cl)c1)c1ccccc1N | 52 µM | > 100 µM | > 100 µM |  |  |  |  | > 100 µM |  |  |  |  | 
CCC/C(Cl)=N\OC(=O)Nc1ccc(Br)cc1 | 7.22 µM | 45.2 µM | 33.8 µM |  |  |  |  | 25.7 µM |  |  |  |  | 
C=CCN1C(=O)N/C(=C\c2ccc(Cl)cc2)C1=O | > 100 µM | > 100 µM | > 100 µM |  |  |  |  |  |  |  |  |  | 
O=C(n1[nH]c(=O)n(-c2ccc([N+](=O)[O-])cc2)c1=O)C(Cl)(Cl)Cl | > 75 µM | > 75 µM | > 75 µM |  |  |  |  | > 75 µM |  |  |  |  | 
Cc1ccc2nc(CN3CCCCC3)cc(=O)n2c1 | > 100 µM | > 100 µM | > 100 µM |  |  |  |  | > 100 µM |  |  |  |  | 
CC[N+](CC)(CC)Cc1cn(S(=O)(=O)c2ccccc2)c2ccccc12 | > 100 µM | > 100 µM |  |  | > 100 µM | > 100 µM | > 100 µM | > 100 µM | > 100 µM |  |  | > 100 µM | > 100 µM
COc1ccc2cc(CNCCCN3CCN(CCCNCc4ccc5cc(OC)ccc5c4)CC3)ccc2c1 | 0.594 µM | 3.31 µM | 3.42 µM |  |  |  |  | 3.14 µM |  |  |  |  | 
CC1=C(C#N)C(=O)N(/N=C/c2ccc(Cl)cc2)C(=O)/C1=c1\o/c(=C2/C(=O)N(/N=C/c3ccc(Cl)cc3)C(=O)C(C#N)=C2C)c2nccnc12 | > 100 µM | > 100 µM | > 100 µM |  |  |  |  | > 100 µM |  |  |  |  | 
C=CCNC(NCC=C)=C(C(Cl)=C(Cl)Cl)[N+](=O)[O-] |  | > 100 µM | > 100 µM |  |  |  |  | > 100 µM |  |  |  |  | 
